Experimental data published in patent US20120301468A1, “ANTI-MN ANTIBODIES AND METHODS OF USING SAME” (BAYER HEALTHCARE LLC, priority 2005, published 2012).

What was measured:
[1] = test system: 13 other carbonic anhydrases; experiment: Binding to other carbonic anhydrases
MN-negative DLD cells = experiment: FACS cell binding, DLD cells; assay type: cell-based
Protocol: Cells may be assayed for MN expression as a diagnostic tool. Adherent MN-expressing PC-3 mm2 cells and non-MN expressing DLD1 cells were detached from their flasks with 1:10 trypsin/Versene in PBS solution for 5 to 10 minutes. Cells were spun down (1000 rpm, 5 minutes), washed once with ice cold RPMI 10% FBS, and resuspended in ice-cold staining buffer (Ca^+ Mg^+-free PBS, 2% BSA, and 0.05% sodium azide) at 6×10^6 cells/ml. Primary antibody, human anti-MN IgG1, or control human IgG1 antibody at 25 μg/mL were incubated with 6×10^5 cells on ice for 1 hour. The unbound antibody was washed from the cells with the ice-cold staining buffer. The cells were fixed with 2% formaldehyde in PBS for 10 minutes, then washed twice with staining buffer. The cell pellet was resuspended in 100 μl ice cold staining buffer containing anti-human Alexa fluor 488 secondary antibody (final conc. 1:200, Molecular Probes/Invitrogen, Carlsbad, Calif.), and incubated on ice for 1 hour. The unbound antibody was washed from the cells two times with flow buffer (PBS containing 2% BSA), and the cells were resuspended in 1 mL flow buffer. FACS analysis of the resuspended cells was performed on a […] FACS Caliber instrument.
The MN antibody G250, a humanized IgG1 antibody, (Wilex) was used as a reference throughout the in vitro studies.

MN-negative cells (DLD1) = experiment: Antibody internalization (Cellomics), DLD1; assay type: cell-based
[2] = test system: HT-29 human CRC xenograft; experiment: HT-29 subcutaneous xenograft model; assay type: in vivo, athymic NCr (nu/nu) mice; conditions: for TGI: end of dosing
Protocol: When tumors reached an average size of ˜120 mg (5 days), treatment was initiated. […] In addition, MMAE was assessed as a free drug at a dose of 0.1, 0.2 and 1 mg/kg. The 0.1 and 0.2 mg/Kg doses of MMAE represent equivalent amounts of this drug to those present on 5 and 10 mg/Kg 3ee9/MMAE respectively.
Anti-tumor effect of 3ee9/MMAE was also assessed in varying schedules, i.e., once a week dosing for total of two doses (Q7Dx2, FIG. 20) and a single dose at the time of staging (Q1Dx1, FIG. 21). In both schedules, 3ee9/MMAE was dosed at 0.625, 1.25, 2.5, 5 and 10 mg/kg.

In vivo distribution = experiment: In vivo distribution; parameters: species or system mice; conditions: Table 4 profile
Description: The Maestro™ in-vivo imaging system (CRI, Woburn, Mass.) with multi-spectral acquisition and analysis is designed to eliminate auto-fluorescence background. Mabs 3ee9 of BAY 79-4620, M75 (mouse monoclonal recognizing MN) and control human IgG, were conjugated with Alexa Fluor 750 (Invitrogen Cat# A20011) according to manufacturer's instructions. The ratio of Protein/AF750 (mol/mol) was 1/5.9 for 3ee9, 8.9 for human IgG, and 6.0 for M75.
Twelve days before the injection of each fluorescence-labeled antibody, Harlan Balb/C nudes were implanted with MIAPaCa-2 (low MN-expressing; 7.5×10^6 cells in 50% Matrigel) subcutaneously in the right flank, and huMN-MIAPaCa2 (MN transfected stable cell line; 5×10^6 cells in 50% Matrigel) subcutaneously in the left flank. 4 μg of conjugated antibody was injected on Day 0 (12 days post implant) to each animal. Imaging was done on Day 4, Day 5 and Day 10. Data were collected using animals that were anaesthetized (100 mg/kg ketamine/10 mg/kg xylazine, i.p.), and placed inside the imaging system. Multi-spectral image cubes (series of images) were acquired with images spaced every 10 nm throughout the spectral range of 680 to 950 nm, which covered the Near Infrared (NIR) range.
Each image was exposed for 5 seconds. False-colored images were synthesized from the spectral cube using Maestro software and scaled to visible brightness using ImagePro Plus 6.0. […]

[3] = test system: MN-negative MIAPaca2 cells; experiment: In vitro cytotoxicity, MIAPaca2
MN = MN (Homo sapiens, UniProt Q16790); experiment: Immunoprecipitation of biotinylated cell surface proteins; assay type: binding; parameters: incubated with cell lysates of MN+ (Pc3 mm2) and MN− (DLD-1) cell lines that had been selectively labeled with biotin; endogenous in cells; host or cells: PC-3 mm2 (MN+); DLD-1 as the MN- control; conditions: Table 4 profile
Protocol: To further explore specificity, various candidate antibodies including the antibody portion of 3ee9/MMAE (3ee9) and the reference antibody G250 were incubated with cell lysates of MN+ (Pc3 mm2) and MN− (DLD-1) cell lines that had been selectively labeled with biotin. Complexes between the antibodies and cellular proteins were immuno-precipitated and the co-precipitated antigens visualized using immunoblots developed with enzyme-linked streptavidin.

Substance: 3ee9/MMAE: human anti-MN IgG1 antibody 3ee9 conjugated to Monomethylauristatin E (MMAE)
- binding to other carbonic anhydrases [1]: no detectable binding
- cell binding by FACS (MN-negative DLD cells): not MN-negative DLD cells
- internalization (MN-negative cells (DLD1)): not by MN-negative cells (DLD1)
- TGI ([2]; HT-29, 0.625 mg/kg Q4Dx3): 54%
- % Inhibition (1-T/D)*100 (Day 18) ([2]; HT-29, 0.625 mg/kg, Q1D × 1): 42%
- Percent Regressions ([2]; HT-29, 0.625 mg/kg, Q1D × 1): 0%
- % Inhibition (1-T/D)*100 (Day 18) ([2]; HT-29, 0.625 mg/kg, Q4D × 3): 54%
- Percent Regressions ([2]; HT-29, 0.625 mg/kg, Q4D × 3): 0%
- % Inhibition (1-T/D)*100 (Day 18) ([2]; HT-29, 0.625 mg/kg, Q7D × 2): 48%
- Percent Regressions ([2]; HT-29, 0.625 mg/kg, Q7D × 2): 0%
- animals showing regressions ([2]; HT-29, 1.25 mg/kg Q4Dx3): 20%
- TGI ([2]; HT-29, 1.25 mg/kg Q4Dx3): 72%
- % Inhibition (1-T/D)*100 (Day 18) ([2]; HT-29, 1.25 mg/kg, Q1D × 1): 48%
- Percent Regressions ([2]; HT-29, 1.25 mg/kg, Q1D × 1): 0%
- % Inhibition (1-T/D)*100 (Day 18) ([2]; HT-29, 1.25 mg/kg, Q4D × 3): 72%
- Percent Regressions ([2]; HT-29, 1.25 mg/kg, Q4D × 3): 2%
- % Inhibition (1-T/D)*100 (Day 18) ([2]; HT-29, 1.25 mg/kg, Q7D × 2): 71%
- Percent Regressions ([2]; HT-29, 1.25 mg/kg, Q7D × 2): 0%
- regressions ([2]; HT-29, 2.5 mg/kg Q4Dx3): 90%
- TGI ([2]; HT-29, 2.5 mg/kg Q4Dx3): 97%
- % Inhibition (1-T/D)*100 (Day 18) ([2]; HT-29, 2.5 mg/kg, Q1D × 1): 93%
- Percent Regressions ([2]; HT-29, 2.5 mg/kg, Q1D × 1): 5%
- % Inhibition (1-T/D)*100 (Day 18) ([2]; HT-29, 2.5 mg/kg, Q4D × 3): 97%
- Percent Regressions ([2]; HT-29, 2.5 mg/kg, Q4D × 3): 9%
- % Inhibition (1-T/D)*100 (Day 18) ([2]; HT-29, 2.5 mg/kg, Q7D × 2): 92%
- TGI ([2]; HT-29, 5 mg/kg Q4Dx3): 100%
- % Inhibition (1-T/D)*100 (Day 18) ([2]; HT-29, 5 mg/kg, Q1D × 1): 98%
- Percent Regressions ([2]; HT-29, 5 mg/kg, Q1D × 1): 8%
- % Inhibition (1-T/D)*100 (Day 18) ([2]; HT-29, 5 mg/kg, Q4D × 3): 100%
- Percent Regressions ([2]; HT-29, 5 mg/kg, Q4D × 3): 10%
- % Inhibition (1-T/D)*100 (Day 18) ([2]; HT-29, 5 mg/kg, Q7D × 2): 96%
- Percent Regressions ([2]; HT-29, 5 mg/kg, Q7D × 2): 7%
- TGI ([2]; HT-29, 10 mg/kg Q4Dx3): 100%
- % Inhibition (1-T/D)*100 (Day 18) ([2]; HT-29, 10 mg/kg, Q1D × 1): 100%
- Percent Regressions ([2]; HT-29, 10 mg/kg, Q1D × 1): 10%
- % Inhibition (1-T/D)*100 (Day 18) ([2]; HT-29, 10 mg/kg, Q4D × 3): 100%
- Percent Regressions ([2]; HT-29, 10 mg/kg, Q4D × 3): 10%
- % Inhibition (1-T/D)*100 (Day 18) ([2]; HT-29, 10 mg/kg, Q7D × 2): 100%
- Percent Regressions ([2]; HT-29, 10 mg/kg, Q7D × 2): 10%
- tolerability ([2]; HT-29, 0.625 to 10 mg/kg i.v. Q4Dx3): well tolerated at all doses examined
- responses ([2]; HT-29, 5 and 10 mg/kg Q4Dx3): 100%
- anti-tumor effect in varying schedules ([2]; HT-29, Q7Dx2 and Q1Dx1, 0.625 to 10 mg/kg): highly effective in inhibiting the growth
- anti-tumor effects ([2]; HT-29 human colo-rectal cancer xenograft model): anti-tumor effects were seen
- In vivo distribution (In vivo distribution): normal
- cytotoxicity ([3]; MIAPaca2 (MN−)): not to MN-negative MIAPaca2 cells
- killing of MN-negative cells ([3]; doses as high as 1 uM): Less than 10%
- EC50 ([3]; read-out: Cytotoxicity: MN− (ec50), MN− cells): > 1000 nM
- Immunoprecipitation (MN): specific
